Laboratory results from article PMC8795149, “Characterization of a novel non-steroidal glucocorticoid receptor agonist optimized for topical treatment” (Scientific Reports, 2022).

Columns and labels:
HPA axis = tested on: HPA axis; design: method as in PMID 3553247; details: topical; cited from earlier work
[1] = target: T1, mineralocorticoid receptor (MR) (Homo sapiens, UniProt P08235); assay: MR agonist assay, MR-luciferase reporter cells; type: cell-based; details: 24 h incubation; 'in contrast' = unlike LEO 134310, which gave no significant activation
T1 sequence (P08235 1-984): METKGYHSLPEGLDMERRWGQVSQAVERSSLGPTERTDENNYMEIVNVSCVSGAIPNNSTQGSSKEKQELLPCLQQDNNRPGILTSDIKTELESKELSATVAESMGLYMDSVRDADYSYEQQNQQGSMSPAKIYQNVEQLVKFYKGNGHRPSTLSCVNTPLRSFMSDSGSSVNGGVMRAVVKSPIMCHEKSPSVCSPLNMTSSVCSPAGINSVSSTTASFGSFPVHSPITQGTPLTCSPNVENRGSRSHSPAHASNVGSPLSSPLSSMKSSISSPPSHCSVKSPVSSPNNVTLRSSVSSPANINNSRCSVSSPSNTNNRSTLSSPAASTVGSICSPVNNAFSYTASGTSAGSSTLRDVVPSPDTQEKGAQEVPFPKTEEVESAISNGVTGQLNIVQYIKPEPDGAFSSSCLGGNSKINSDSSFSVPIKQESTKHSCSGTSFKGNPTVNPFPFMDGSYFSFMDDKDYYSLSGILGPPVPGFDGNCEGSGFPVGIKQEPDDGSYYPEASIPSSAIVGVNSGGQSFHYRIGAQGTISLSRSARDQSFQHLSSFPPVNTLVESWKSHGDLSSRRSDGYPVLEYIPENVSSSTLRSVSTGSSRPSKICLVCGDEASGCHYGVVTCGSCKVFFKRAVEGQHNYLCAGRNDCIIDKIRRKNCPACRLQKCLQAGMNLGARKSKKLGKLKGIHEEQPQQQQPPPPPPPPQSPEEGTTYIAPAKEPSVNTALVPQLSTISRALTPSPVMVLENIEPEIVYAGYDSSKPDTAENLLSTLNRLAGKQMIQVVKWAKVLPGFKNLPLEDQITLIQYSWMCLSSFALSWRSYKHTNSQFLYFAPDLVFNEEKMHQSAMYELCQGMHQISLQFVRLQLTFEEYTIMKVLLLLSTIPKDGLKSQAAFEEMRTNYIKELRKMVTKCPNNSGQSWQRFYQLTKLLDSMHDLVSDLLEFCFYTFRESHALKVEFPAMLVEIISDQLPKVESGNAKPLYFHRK
Procedure: Assays were performed at Indigo Biosciences according to standard protocols. In brief, MR-luciferase reporter cells were incubated with medium containing charcoal-stripped fetal bovine serum and incubated with test and reference compounds for 24 h before measuring luminescence. Data were fitted by the means of four parameter logistic regression.

atopic dermatitis = tested on: atopic dermatitis; design: method as in PMID 25614148; details: atopic dermatitis patients; cited from earlier work
skin atrophy = tested on: skin atrophy; design: method as in PMID 23639214; details: healthy subjects; cited from earlier work

CCC(=O)OCC(=O)[C@@]1(OC(=O)CC)[C@@H](C)C[C@H]2[C@@H]3CCC4=CC(=O)C=C[C@]4(C)[C@@]3(F)[C@@H](O)C[C@@]21C [betamethasone dipropionate]
Effect on morning plasma cortisol (HPA axis): reduce morning plasma cortisol significantly

C[C@]12CCC(=O)C=C1CC[C@@H]1[C@@H]2[C@@H](O)C[C@]2(C=O)[C@@H](C(=O)CO)CC[C@@H]12 [aldosterone]
Activation of MR (luciferase activity) [1]: positive control

C[C@@H]1C[C@H]2[C@@H]3C[C@H](F)C4=CC(=O)C=C[C@]4(C)[C@@]3(F)[C@@H](O)C[C@]2(C)[C@@]1(OC(=O)C1C(C)(C)C1(C)C)C(=O)OCC#N [GW870086]
Clinical efficacy (atopic dermatitis): did not achieve significant clinical efficacy
Induction of skin atrophy (skin atrophy): not to induce skin atrophy
